Laboratory results: patent US20250230193A1, “CYCLIC COMPOUND HAVING SELECTIVE KRAS INHIBITORY EFFECT ON HRAS AND NRAS” (CHUGAI SEIYAKU KABUSHIKI KAISHA, priority 2022, published 2025)
Where a SMILES comes first, the peptide text is derived from it. Bridges are numbered along the chain shown (N, C = ends). [ ]: non-standard residue; d: D form. The star is where a group is joined. hPhe(3,5-F2-4-CF3) = N[C@@H](CCc1cc(F)c(C(F)(F)F)c(F)c1)C(=O)O; hPhe(3-Cl-4-CF3) = N[C@@H](CCc1ccc(C(F)(F)F)c(Cl)c1)C(=O)O; NPrPhe(4-CF3) = CCCN[C@@H](Cc1ccc(C(F)(F)F)cc1)C(=O)O; NMeGly(cPent) = CN[C@H](C(=O)O)C1CCCC1; Pro(4,4-F2) = O=C(O)[C@@H]1CC(F)(F)CN1; αMeI = CC[C@H](C)[C@](C)(N)C(=O)O; NMeD = CN[C@@H](CC(=O)O)C(=O)O; NMeL = CN[C@@H](CC(C)C)C(=O)O; αMeS = C[C@](N)(CO)C(=O)O; Morpholide = C1CN(*)CCO1; Ac5c = NC1(C(=O)O)CCCC1; NEtG = CCNCC(=O)O; Sar = CNCC(=O)O; tBu = CC(C)(C)*

Key:
[1] = biological target: GDP-bound NRAS wild-type protein (Homo sapiens, UniProt P01111); experiment: Binding to NRAS by surface plasmon resonance (SPR), Single Cycle Kinetics; conditions: KD ratio NRAS/KRAS
GDP-bound NRAS wild-type protein, sequence (P01111 whole entry): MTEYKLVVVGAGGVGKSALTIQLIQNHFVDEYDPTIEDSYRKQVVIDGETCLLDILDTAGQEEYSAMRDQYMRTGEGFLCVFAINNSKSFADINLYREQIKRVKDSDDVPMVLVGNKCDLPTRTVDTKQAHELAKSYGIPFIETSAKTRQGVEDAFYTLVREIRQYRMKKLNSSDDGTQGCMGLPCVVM

[2] = biological target: GDP-bound HRAS wild-type protein (Homo sapiens, UniProt P01112); experiment: Binding to HRAS by surface plasmon resonance (SPR), Single Cycle Kinetics; conditions: KD ratio HRAS/KRAS
GDP-bound HRAS wild-type protein, sequence (P01112 whole entry): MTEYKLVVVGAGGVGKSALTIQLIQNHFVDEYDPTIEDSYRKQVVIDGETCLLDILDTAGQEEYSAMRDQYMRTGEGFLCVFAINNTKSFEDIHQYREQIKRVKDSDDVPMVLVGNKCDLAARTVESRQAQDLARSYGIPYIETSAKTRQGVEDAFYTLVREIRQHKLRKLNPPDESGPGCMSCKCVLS

| SMILES | NRAS/KRAS (ratio of KD value with respect to GDP-bound NRAS wild-type protein to KD value with respect to KRAS) ([1]; class symbols) | HRAS/KRAS (ratio of KD value with respect to GDP-bound HRAS wild-type protein to KD value with respect to KRAS) ([2]; class symbols) | NRAS/KRAS (ratio of KD value with respect to GDP-bound NRAS wild-type protein to KD value with respect to KRAS) ([1]; SPR) | HRAS/KRAS (ratio of KD value with respect to GDP-bound HRAS wild-type protein to KD value with respect to KRAS) ([2]; SPR) |
| --- | --- | --- | --- | --- |
| CCC(CC)[C@H]1C(=O)N(C)[C@H](C(=O)N(C)C)CC(=O)N(C)[C@@H](COC)C(=O)N[C@@H]([C@@H](C)CC)C(=O)N(C)CC(=O)N(C)[C@H]2C/C=C\CCN(C2=O)[C@@H](Cc2ccc(C)cc2)C(=O)N(C)CC(=O)N[C@@H](CCc2ccc(Cl)c(Cl)c2)C(=O)N2CC3(CC3)C[C@H]2C(=O)N(C)C2(CC(C)(C)C2)C(=O)N1C [PP2820] | AA (a compound having 20 or more is denoted as AA) | A (a compound having 10 or more and less than 20 is denoted as A) | – | – |
| CCCN1C(=O)CN(C)C(=O)CN(C)C(=O)[C@H]([C@@H](C)CC)NC(=O)[C@H](CC(C)C)N(C)C(=O)C[C@@H](C(=O)N2CCOCC2)N(C)C(=O)[C@H](C2CCCC2)N(C)C(=O)[C@](C)([C@@H](C)CC)NC(=O)[C@@H]2CCCN2C(=O)[C@H](CCc2cc(F)c(C(F)(F)F)c(F)c2)NC(=O)CN(C)C(=O)[C@@H]1Cc1ccc(C(F)(F)F)cc1 [PP0757] ([NMeL]I[Sar][Sar][NPrPhe(4-CF3)][Sar][hPhe(3,5-F2-4-CF3)]P[αMeI][NMeGly(cPent)][NMeD]-Morpholide; lactam N-11) | – | – | B (a compound having 3 or more and less than 10 is denoted as B) | C (A compound having a KD ratio of 0.1 or more and less than 3 is denoted as C) |
| CCO[C@@H]1C[C@H]2C(=O)NC3(CCC3)C(=O)N(C)[C@@H](C3CCCC3)C(=O)N(CC)[C@H](C(=O)N(C)C)CC(=O)N(C)[C@@H](CC)C(=O)N[C@@H]([C@@H](C)CC)C(=O)N(C)CC(=O)N(C)[C@H]3CCCCCN(C3=O)[C@@H](Cc3ccc(C(F)(F)F)cc3)C(=O)N(C)CC(=O)N[C@@H](CCc3cc(F)c(C(F)(F)F)c(F)c3)C(=O)N2C1 [PP0633] | – | – | B (a compound having 3 or more and less than 10 is denoted as B) | B (a compound having 3 or more and less than 10 is denoted as B) |
| CCCN1C(=O)CN(C)C(=O)CN(C)C(=O)[C@H]([C@@H](C)CC)NC(=O)[C@H](CC(C)C)N(C)C(=O)C[C@@H](C(=O)N(C)C)N(C)C(=O)[C@H](C2CCCC2)N(C)C(=O)[C@](C)(COC(C)(C)C)NC(=O)[C@@H]2CCCN2C(=O)[C@H](CCc2cc(F)c(C(F)(F)F)c(F)c2)NC(=O)CN(C)C(=O)[C@@H]1Cc1ccc(C(F)(F)F)cc1 [PP0743] ([NMeL]I[Sar][Sar][NPrPhe(4-CF3)][Sar][hPhe(3,5-F2-4-CF3)]P[αMeS](tBu)[NMeGly(cPent)][NMeD]-NMe2; lactam N-11) | – | – | B (a compound having 3 or more and less than 10 is denoted as B) | C (A compound having a KD ratio of 0.1 or more and less than 3 is denoted as C) |
| CC[C@H](C)[C@@H]1NC(=O)[C@H](CC(C)C)N(C)C(=O)C[C@@H](C(=O)N2CCOCC2)N(C)C(=O)[C@H](C2CCCC2)N(C)C(=O)C2(CCCC2)NC(=O)[C@@H]2CCCN2C(=O)[C@H](CCc2ccc(C(F)(F)F)c(Cl)c2)NC(=O)CN(C)C(=O)[C@H](Cc2ccc(OC)cc2)N2CCCC[C@@H](C2=O)N(C)C(=O)CN(C)C1=O [PP0534] | – | – | B (a compound having 3 or more and less than 10 is denoted as B) | B (a compound having 3 or more and less than 10 is denoted as B) |
| CCCN1C(=O)CN(C)C(=O)CN(CC)C(=O)[C@H]([C@@H](C)CC)NC(=O)[C@H](CC(C)C)N(C)C(=O)C[C@@H](C(=O)N(C)C)N(C)C(=O)[C@H](C2CCCC2)N(C)C(=O)C2(CCCC2)NC(=O)[C@@H]2CC(F)(F)CN2C(=O)[C@H](CCc2ccc(C(F)(F)F)c(Cl)c2)NC(=O)CN(C)C(=O)[C@@H]1Cc1ccc(C(F)(F)F)cc1 [PP0425] ([NMeL]I[NEtG][Sar][NPrPhe(4-CF3)][Sar][hPhe(3-Cl-4-CF3)][Pro(4,4-F2)][Ac5c][NMeGly(cPent)][NMeD]-NMe2; lactam N-11) | – | – | B (a compound having 3 or more and less than 10 is denoted as B) | C (A compound having a KD ratio of 0.1 or more and less than 3 is denoted as C) |
| CC[C@H](C)[C@@H]1NC(=O)[C@H](CC(C)C)N(C)C(=O)C[C@@H](C(=O)N2CCOCC2)N(C)C(=O)[C@H](C2CCCC2)N(C)C(=O)C2(CCCC2)NC(=O)[C@@H]2CCCN2C(=O)[C@H](CCc2ccc(C(F)(F)F)c(Cl)c2)NC(=O)CN(C)C(=O)[C@H](Cc2ccc(OC)cc2)N2C/C=C\CC[C@@H](C2=O)N(C)C(=O)CN(C)C1=O [PP0609] | – | – | B (a compound having 3 or more and less than 10 is denoted as B) | B (a compound having 3 or more and less than 10 is denoted as B) |
